Data: patent publication US20150182527A1, “COMPOSITIONS, DEVICES AND METHODS OF TREATING INFECTIONS” (COOK MEDICAL TECHNOLOGIES LLC, priority 2014, published 2015)

Legend:
[1] = system: C. glabrata # ATCC 2950; assay: Checkerboard microdilution MIC of azole and quaternary ammonium salt combinations; type: cell-based, Candida glabrata; settings: for MIC: Nakaseomyces glabratus, ATCC2950, fluconazole alone or its concentration in the combination
Excerpt: (§1) Interactions between the selected azoles and quaternary ammonium salts (quats) were characterized via changes in minimum inhibitory concentration (MIC) using a checkerboard method in 96-well plates. This method is adapted from the microdilution method outlined in CLSI, M27-A3 (2008), —Reference Method for Broth Dilution Antifungal Susceptibility Testing of Yeasts; Approved Standard—3rd Edition.
(§2) Briefly, X and Y axes were established on the plates to serve as MIC controls for the compounds acting individually. Two-compound interactions were evaluated at the X-Y axis intersection of the two single-drug concentration axes.
(§3) Frozen concentrated stock compound solutions were used as the starting point in making the dilution series. […] One-quarter of the final well volume of the 4× stock was added to the appropriate wells. For wells with a second compound, one-quarter of the final well volume of the second compound was also added. An equivalent volume of culture media was added to wells in which only a single compound was tested.
(§4) Final well volume was either 100 μl or 200 μl depending on assay run. After addition of the 4× stocks and/or media, one-half of the final well volume of 5×10^3 CFU/mL yeast inoculum was added to each test well. Yeast inoculums were made from a 0.5 McFarland-matched culture that had been growing for 4-5 hours at 37° C. in trypticase soy broth (TSB). Each assay plate also included inoculum-only growth control wells (half the final well volume of inoculum plus the other half culture media) and culture media-only control wells. The inoculated plates were cultured aerobically in a humidified 36° C. room air incubator for 18 hours or 24 hours (±1 hour), depending on assay run, at which time growth was scored. The scored plates were then returned to the incubator for an additional 24 hours (±1 hour) of culturing and scored a second time (at 42 or 48 hours total culturing time).
(§5) Unless stated otherwise, yeast growth was scored using the subjective five tier numerical score (NS) scale established in CLSI M27-A3: 4=no reduction in growth relative to control, 3=slight reduction in growth (-25% reduction), 2=prominent decrease in growth (˜50% reduction), 1=slightly hazy growth (-75% reduction), 0 =no visible growth. Growth is scored relative to the on-plate inoculum control.
(§6) The checkerboard plate data was utilized to derive a fractional inhibitory concentration index (FICI) value that scores the interaction between compounds on a three category interaction scale: FICI <0.5 indicates synergy, FICI 0.5-4 indicates no interaction, and FICI >4 indicates antagonism. The FICI equation is: […]

[2] = system: C. albicans #ATCC 10231; assay: as above; type: cell-based, Candida albicans; settings: for MIC: Candida albicans
Excerpt: as §1, §2, §3, §4, §5, §6

[3] = TSB media, 48 hours post inoculation, benzalkonium-Cl alone or its concentration in the combination

Molecule	Benzalkonium-Cl MIC [1, 3] [µg/mL]	Benzalkonium-Cl MIC [2, 3] [µg/mL]	MIC ([1]; RPMI media, 48 hours post inoculation) [µg/mL]	MIC ([1]; TSB media, 42 hours post inoculation, NS≦2 is efficacious) [µg/mL]	Fluconazole MIC ([1]; TSB media, 48 hours post inoculation, fluconazole alone or its concentration in the combination with benzalkonium-Cl) [µg/mL]	MIC ([2]; ATCC10231, 48 h, RPMI media, 48 hours post inoculation, fluconazole alone or its concentration in the combination) [µg/mL]	MIC ([2]; ATCC10231, TSB media, 42 hours post inoculation, NS≦2 is efficacious, fluconazole alone or its concentration in the combination) [µg/mL]	MIC ([2]; ATCC10231, TSB media, 48 hours post inoculation, fluconazole alone or its concentration in the combination with benzalkonium-Cl) [µg/mL]
benzalkonium chloride [Benzalkonium-Cl]	1.9	3.8						
OC(Cn1cncn1)(Cn1cncn1)c1ccc(F)cc1F [Fluconazole, fluconazole]			16	16	16	128	256	64
